Reference: PubChem BioAssay AID2060904 (Molecular Pharmacology Branch, DTP, NCI, 2025)
pIC50: −log10 of the molar value.

Tested on: 349418-098-R-PDC complex spheroid viability
Experiment: Anticancer human tumor 349418-098-R-PDC patient-derived lung adenocarcinoma cell line growth inhibition [RAS]
Conditions: for pIC50: curve of first compound; for viability, T/C: stronger effect = lower value
Procedure, shortened: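 Multi-cell-type spheroids: tumor cells plus HUVEC endothelial cells and mesenchymal stem cells. RAS-pathway inhibitors were combined with targeted agents, each dosed in half-log steps down from clinical Cmax, or from 10 microM when Cmax was unknown.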

[1] = second compound 0.0316 µM, first compound 0.0316 µM
[2] = second compound 0.0316 µM, first compound 0.1 µM
[3] = second compound 0.0316 µM, first compound 0.316 µM
[4] = second compound 0.0316 µM, first compound 1 µM
[5] = second compound 0.0316 µM, first compound 3.16 µM
[6] = second compound 0.0316 µM, first compound 10 µM
[7] = second compound 0.1 µM, first compound 0.0316 µM
[8] = second compound 0.1 µM, first compound 0.1 µM
[9] = second compound 0.1 µM, first compound 0.316 µM
[10] = second compound 0.1 µM, first compound 1 µM
[11] = second compound 0.1 µM, first compound 3.16 µM
[12] = second compound 0.1 µM, first compound 10 µM
[13] = second compound 0.316 µM, first compound 0.0316 µM
[14] = second compound 0.316 µM, first compound 0.1 µM
[15] = second compound 0.316 µM, first compound 0.316 µM
[16] = second compound 0.316 µM, first compound 1 µM
[17] = second compound 0.316 µM, first compound 3.16 µM
[18] = second compound 0.316 µM, first compound 10 µM
[19] = second compound 1 µM, first compound 0.0316 µM
[20] = second compound 1 µM, first compound 0.1 µM
[21] = second compound 1 µM, first compound 0.316 µM
[22] = second compound 1 µM, first compound 1 µM
[23] = second compound 1 µM, first compound 3.16 µM
[24] = second compound 1 µM, first compound 10 µM
[25] = second compound 3.16 µM, first compound 0.0316 µM
[26] = second compound 3.16 µM, first compound 0.1 µM
[27] = second compound 3.16 µM, first compound 0.316 µM
[28] = second compound 3.16 µM, first compound 1 µM
[29] = second compound 3.16 µM, first compound 3.16 µM
[30] = second compound 3.16 µM, first compound 10 µM
[31] = second compound 10 µM, first compound 0.0316 µM
[32] = second compound 10 µM, first compound 0.1 µM
[33] = second compound 10 µM, first compound 0.316 µM
[34] = second compound 10 µM, first compound 1 µM
[35] = second compound 10 µM, first compound 3.16 µM
[36] = second compound 10 µM, first compound 10 µM
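Also: spheroids exposed to compound for seven days before viability readout.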

Compound: CC(=O)OC12COC1CC(O)C1(C)C(=O)C(O)C3=C(C)C(OC(=O)C(O)C(NC(=O)OC(C)(C)C)c4ccccc4)CC(O)(C(OC(=O)c4ccccc4)C21)C3(C)C (stereo unspecified) + C#Cc1c(F)ccc2cc(O)cc(-c3ncc4c(N5CC6CCC(C5)N6)nc(OCC56CCCN5CC(F)C6)nc4c3F)c12
- pIC50 (second compound 0.0316 µM): > 7.50
- pIC50 (second compound 0.1 µM): > 7.50
- pIC50 (second compound 0.316 µM): > 7.50
- pIC50 (second compound 1 µM): > 7.50
- pIC50 (second compound 3.16 µM): > 7.50
- pIC50 (second compound 10 µM): > 7.50
- viability, T/C [1]: 16.5%
- viability, T/C [2]: 15.4%
- viability, T/C [3]: 21.2%
- viability, T/C [4]: 19.1%
- viability, T/C [5]: 19.9%
- viability, T/C [6]: 22.4%
- viability, T/C [7]: 16.3%
- viability, T/C [8]: 23.3%
- viability, T/C [9]: 19.9%
- viability, T/C [10]: 18.4%
- viability, T/C [11]: 24.4%
- viability, T/C [12]: 27%
- viability, T/C [13]: 16.1%
- viability, T/C [14]: 19.1%
- viability, T/C [15]: 26%
- viability, T/C [16]: 21.1%
- viability, T/C [17]: 23.3%
- viability, T/C [18]: 24.5%
- viability, T/C [19]: 16.8%
- viability, T/C [20]: 16.6%
- viability, T/C [21]: 21.4%
- viability, T/C [22]: 18.2%
- viability, T/C [23]: 19.1%
- viability, T/C [24]: 24.4%
- viability, T/C [25]: 13.2%
- viability, T/C [26]: 17.9%
- viability, T/C [27]: 17.5%
- viability, T/C [28]: 24.6%
- viability, T/C [29]: 31.2%
- viability, T/C [30]: 23.4%
- viability, T/C [31]: 7.77%
- viability, T/C [32]: 5.42%
- viability, T/C [33]: 9.77%
- viability, T/C [34]: 6.32%
- viability, T/C [35]: 7.62%
- viability, T/C [36]: 5.03%

Compound: NC1c2ccccc2OC12CCN(c1cnc3c(N4CCCc5ncccc54)n[nH]c3n1)CC2 (stereo unspecified) + C#Cc1c(F)ccc2cc(O)cc(-c3ncc4c(N5CC6CCC(C5)N6)nc(OCC56CCCN5CC(F)C6)nc4c3F)c12
- pIC50 (second compound 0.0316 µM): < 5.00
- pIC50 (second compound 0.1 µM): 5.03
- pIC50 (second compound 0.316 µM): < 5.00
- pIC50 (second compound 1 µM): < 5.00
- pIC50 (second compound 3.16 µM): < 5.00
- pIC50 (second compound 10 µM): < 5.00
- viability, T/C [1]: 113%
- viability, T/C [2]: 108%
- viability, T/C [3]: 96.7%
- viability, T/C [4]: 79.7%
- viability, T/C [5]: 90.1%
- viability, T/C [6]: 63%
- viability, T/C [7]: 86.7%
- viability, T/C [8]: 86.2%
- viability, T/C [9]: 94.7%
- viability, T/C [10]: 79.1%
- viability, T/C [11]: 94.3%
- viability, T/C [12]: 47.6%
- viability, T/C [13]: 94.2%
- viability, T/C [14]: 120%
- viability, T/C [15]: 105%
- viability, T/C [16]: 76.2%
- viability, T/C [17]: 83.5%
- viability, T/C [18]: 58.4%
- viability, T/C [19]: 95.9%
- viability, T/C [20]: 92.4%
- viability, T/C [21]: 87.5%
- viability, T/C [22]: 99.6%
- viability, T/C [23]: 104%
- viability, T/C [24]: 54.2%
- viability, T/C [25]: 71%
- viability, T/C [26]: 90.4%
- viability, T/C [27]: 90.1%
- viability, T/C [28]: 84.3%
- viability, T/C [29]: 84.9%
- viability, T/C [30]: 77%
- viability, T/C [31]: 85.3%
- viability, T/C [32]: 22.6%
- viability, T/C [33]: 67.2%
- viability, T/C [34]: 82.7%
- viability, T/C [35]: 65.3%
- viability, T/C [36]: 67.2%

Compound: Nc1ccn(C2OC(CO)C(O)C2(F)F)c(=O)n1 (stereo unspecified) + C#Cc1c(F)ccc2cc(O)cc(-c3ncc4c(N5CC6CCC(C5)N6)nc(OCC56CCCN5CC(F)C6)nc4c3F)c12
- pIC50 (second compound 0.0316 µM): > 8.50
- pIC50 (second compound 0.1 µM): > 8.50
- pIC50 (second compound 0.316 µM): > 8.50
- pIC50 (second compound 1 µM): > 8.50
- pIC50 (second compound 3.16 µM): > 8.50
- pIC50 (second compound 10 µM): > 8.50
- viability, T/C (second compound 0.0316 µM, first compound 0.00316 µM): 22.7%
- viability, T/C (second compound 0.0316 µM, first compound 0.01 µM): 7.34%
- viability, T/C [1]: 6.68%
- viability, T/C [2]: 6.34%
- viability, T/C [3]: 4.77%
- viability, T/C [4]: 5.69%
- viability, T/C (second compound 0.1 µM, first compound 0.00316 µM): 22.5%
- viability, T/C (second compound 0.1 µM, first compound 0.01 µM): 6.75%
- viability, T/C [7]: 6.72%
- viability, T/C [8]: 5.71%
- viability, T/C [9]: 5.49%
- viability, T/C [10]: 4.87%
- viability, T/C (second compound 0.316 µM, first compound 0.00316 µM): 22.3%
- viability, T/C (second compound 0.316 µM, first compound 0.01 µM): 7.7%
- viability, T/C [13]: 6.8%
- viability, T/C [14]: 6.21%
- viability, T/C [15]: 6.34%
- viability, T/C [16]: 5.58%
- viability, T/C (second compound 1 µM, first compound 0.00316 µM): 21.2%
- viability, T/C (second compound 1 µM, first compound 0.01 µM): 7.84%
- viability, T/C [19]: 5.78%
- viability, T/C [20]: 6.95%
- viability, T/C [21]: 6.05%
- viability, T/C [22]: 5.2%
- viability, T/C (second compound 3.16 µM, first compound 0.00316 µM): 18.1%
- viability, T/C (second compound 3.16 µM, first compound 0.01 µM): 9.18%
- viability, T/C [25]: 6.71%
- viability, T/C [26]: 7.51%
- viability, T/C [27]: 7.89%
- viability, T/C [28]: 6.18%
- viability, T/C (second compound 10 µM, first compound 0.00316 µM): 16%
- viability, T/C (second compound 10 µM, first compound 0.01 µM): 3.49%
- viability, T/C [31]: 5.23%
- viability, T/C [32]: 3.11%
- viability, T/C [33]: 5.48%
- viability, T/C [34]: 4.28%
